Reference: PubChem BioAssay AID1963963 (Molecular Pharmacology Branch, DTP, NCI, 2024)

Test system: 958667-338-R-J2-PDC tumor spheroids viability
Experiment: Anticancer human tumor 958667-338-R-J2-PDC patient-derived colon adenocarcinoma cell line growth inhibition [PI3K]
Details: spheroids with HUVEC and MSC; for IC50: curve of first compound; for viability, T/C: stronger effect = lower value; active = viability on the fitted dose curve at most 10% of control; inactive = the rest
Method in brief: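 Tumor cells were combined with HUVEC and MSCs into spheroids, then dosed with PI3K-inhibitor combinations over half-log ranges capped near clinical Cmax or 10 microM.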

[1] = second compound 0.0316 µM, first compound 0.0316 µM
[2] = second compound 0.0316 µM, first compound 0.1 µM
[3] = second compound 0.0316 µM, first compound 0.316 µM
[4] = second compound 0.0316 µM, first compound 1 µM
[5] = second compound 0.0316 µM, first compound 3.16 µM
[6] = second compound 0.0316 µM, first compound 10 µM
[7] = second compound 0.1 µM, first compound 0.0316 µM
[8] = second compound 0.1 µM, first compound 0.1 µM
[9] = second compound 0.1 µM, first compound 0.316 µM
[10] = second compound 0.1 µM, first compound 1 µM
[11] = second compound 0.1 µM, first compound 3.16 µM
[12] = second compound 0.1 µM, first compound 10 µM
[13] = second compound 0.316 µM, first compound 0.0316 µM
[14] = second compound 0.316 µM, first compound 0.1 µM
[15] = second compound 0.316 µM, first compound 0.316 µM
[16] = second compound 0.316 µM, first compound 1 µM
[17] = second compound 0.316 µM, first compound 3.16 µM
[18] = second compound 0.316 µM, first compound 10 µM
[19] = second compound 1 µM, first compound 0.0316 µM
[20] = second compound 1 µM, first compound 0.1 µM
[21] = second compound 1 µM, first compound 0.316 µM
[22] = second compound 1 µM, first compound 1 µM
[23] = second compound 1 µM, first compound 3.16 µM
[24] = second compound 1 µM, first compound 10 µM
[25] = second compound 3.16 µM, first compound 0.0316 µM
[26] = second compound 3.16 µM, first compound 0.1 µM
[27] = second compound 3.16 µM, first compound 0.316 µM
[28] = second compound 3.16 µM, first compound 1 µM
[29] = second compound 3.16 µM, first compound 3.16 µM
[30] = second compound 3.16 µM, first compound 10 µM
[31] = second compound 10 µM, first compound 0.0316 µM
[32] = second compound 10 µM, first compound 0.1 µM
[33] = second compound 10 µM, first compound 0.316 µM
[34] = second compound 10 µM, first compound 1 µM
[35] = second compound 10 µM, first compound 3.16 µM
[36] = second compound 10 µM, first compound 10 µM
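Also: spheroids exposed to compounds for seven days before readout.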

CC(Cn1ccc(-c2ccc(C#N)c(Cl)c2)n1)NC(=O)c1cc(C(C)O)[nH]n1 (stereo unspecified) + Cc1nc(NC(=O)N2CCCC2C(N)=O)sc1-c1ccnc(C(C)(C)C(F)(F)F)c1
inactive: viability, T/C [1] 78.8% | viability, T/C [2] 98.7% | viability, T/C [3] 84.2% | viability, T/C [4] 114% | viability, T/C [5] 102% | viability, T/C [6] 107% | viability, T/C [7] 86.8% | viability, T/C [8] 92.8% | viability, T/C [9] 97.9% | viability, T/C [10] 81.9% | viability, T/C [11] 91.9% | viability, T/C [12] 74.8% | viability, T/C [13] 106% | viability, T/C [14] 87.8% | viability, T/C [15] 90.8% | viability, T/C [16] 94.5% | viability, T/C [17] 86.3% | viability, T/C [18] 92.3% | viability, T/C [19] 62.9% | viability, T/C [20] 65.9% | viability, T/C [21] 95.9% | viability, T/C [22] 72.8% | viability, T/C [23] 92.7% | viability, T/C [24] 80% | viability, T/C [25] 76.3% | viability, T/C [26] 55% | viability, T/C [27] 62.8% | viability, T/C [28] 68.4% | viability, T/C [29] 85.4% | viability, T/C [30] 72.6% | viability, T/C [31] 52.5% | viability, T/C [32] 59.7% | viability, T/C [33] 47.7% | viability, T/C [34] 59.7% | viability, T/C [35] 72% | viability, T/C [36] 50.5%
> 10 µM: IC50 (second compound 0.0316 µM) | IC50 (second compound 0.1 µM) | IC50 (second compound 0.316 µM) | IC50 (second compound 1 µM) | IC50 (second compound 3.16 µM) | IC50 (second compound 10 µM)

CCN1CCN(Cc2ccc(Nc3ncc(F)c(-c4cc(F)c5nc(C)n(C(C)C)c5c4)n3)nc2)CC1 + Cc1nc(NC(=O)N2CCCC2C(N)=O)sc1-c1ccnc(C(C)(C)C(F)(F)F)c1
> 1 µM: IC50 (second compound 0.0316 µM) | IC50 (second compound 0.1 µM) | IC50 (second compound 0.316 µM)
0.0305 µM: IC50 (second compound 10 µM)
inactive: viability, T/C (second compound 0.0316 µM, first compound 0.00316 µM) 96.6% | viability, T/C (second compound 0.0316 µM, first compound 0.01 µM) 108% | viability, T/C [1] 93.5% | viability, T/C [2] 81.5% | viability, T/C [3] 64.7% | viability, T/C [4] 73.9% | viability, T/C (second compound 0.1 µM, first compound 0.00316 µM) 97.6% | viability, T/C (second compound 0.1 µM, first compound 0.01 µM) 112% | viability, T/C [7] 85% | viability, T/C [8] 77.1% | viability, T/C [9] 86.1% | viability, T/C [10] 70.4% | viability, T/C (second compound 0.316 µM, first compound 0.00316 µM) 85.5% | viability, T/C (second compound 0.316 µM, first compound 0.01 µM) 86% | viability, T/C [13] 79.7% | viability, T/C [14] 84.6% | viability, T/C [15] 68% | viability, T/C [16] 61.8% | viability, T/C (second compound 1 µM, first compound 0.00316 µM) 94.5% | viability, T/C (second compound 1 µM, first compound 0.01 µM) 67.4% | viability, T/C [19] 72.8% | viability, T/C [20] 59.7% | viability, T/C [21] 57.4% | viability, T/C [22] 45.5% | viability, T/C (second compound 3.16 µM, first compound 0.00316 µM) 66.4% | viability, T/C (second compound 3.16 µM, first compound 0.01 µM) 86.1% | viability, T/C [25] 48.1% | viability, T/C [26] 47.1% | viability, T/C [27] 47.9% | viability, T/C [28] 35.8% | viability, T/C (second compound 10 µM, first compound 0.00316 µM) 54.2% | viability, T/C (second compound 10 µM, first compound 0.01 µM) 60.8% | viability, T/C [31] 44.7% | viability, T/C [32] 46.5% | viability, T/C [33] 36.5% | viability, T/C [34] 31.3%
0.0294 µM: IC50 (second compound 3.16 µM)
0.684 µM: IC50 (second compound 1 µM)

CC1(C)CCC(CN2CCN(c3ccc(C(=O)NS(=O)(=O)c4ccc(NCC5CCOCC5)c([N+](=O)[O-])c4)c(Oc4cnc5[nH]ccc5c4)c3)CC2)=C(c2ccc(Cl)cc2)C1 + CC(Nc1ncnc2nc[nH]c12)c1cc2cccc(Cl)c2c(=O)n1-c1ccccc1
inactive: viability, T/C [1] 107% | viability, T/C [2] 93.6% | viability, T/C [3] 101% | viability, T/C [4] 93% | viability, T/C [5] 119% | viability, T/C [6] 69.9% | viability, T/C [7] 96.3% | viability, T/C [8] 102% | viability, T/C [9] 90.6% | viability, T/C [10] 94.6% | viability, T/C [11] 107% | viability, T/C [12] 51.2% | viability, T/C [13] 101% | viability, T/C [14] 106% | viability, T/C [15] 104% | viability, T/C [16] 116% | viability, T/C [17] 105% | viability, T/C [18] 80.3% | viability, T/C [19] 90.1% | viability, T/C [20] 96.2% | viability, T/C [21] 100% | viability, T/C [22] 100% | viability, T/C [23] 101% | viability, T/C [24] 76.8% | viability, T/C [25] 93.4% | viability, T/C [26] 108% | viability, T/C [27] 94.4% | viability, T/C [28] 93.1% | viability, T/C [29] 99.9% | viability, T/C [30] 54.5% | viability, T/C [31] 93.2% | viability, T/C [32] 84.3% | viability, T/C [33] 101% | viability, T/C [34] 88% | viability, T/C [35] 97.7% | viability, T/C [36] 68.2%
> 10 µM: IC50 (second compound 0.0316 µM) | IC50 (second compound 0.1 µM) | IC50 (second compound 0.316 µM) | IC50 (second compound 1 µM) | IC50 (second compound 3.16 µM) | IC50 (second compound 10 µM)
